Each structure is given as a SMILES string.

Chain of human EP4 receptor (P35408 whole entry): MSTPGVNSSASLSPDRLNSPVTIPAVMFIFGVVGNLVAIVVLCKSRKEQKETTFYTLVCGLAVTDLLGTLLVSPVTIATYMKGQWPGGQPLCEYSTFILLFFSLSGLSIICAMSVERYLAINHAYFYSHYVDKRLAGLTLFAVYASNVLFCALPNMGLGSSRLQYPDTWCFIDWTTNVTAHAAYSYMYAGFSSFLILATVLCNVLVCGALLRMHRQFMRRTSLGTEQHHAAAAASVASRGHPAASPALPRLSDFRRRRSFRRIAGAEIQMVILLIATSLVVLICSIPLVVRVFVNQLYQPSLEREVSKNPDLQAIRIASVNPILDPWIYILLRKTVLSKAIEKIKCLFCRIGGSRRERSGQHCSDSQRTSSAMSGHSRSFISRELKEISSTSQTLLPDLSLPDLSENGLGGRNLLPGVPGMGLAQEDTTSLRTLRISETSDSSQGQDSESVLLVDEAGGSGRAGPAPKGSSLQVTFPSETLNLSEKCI

The target of the experiment is human EP4 receptor (Homo sapiens (Human), UniProt P35408). Description: Test for antagonism of the human EP4 receptor signal (cAMP HTRF). Conditions: cells expressing hEP4, PGE2 at EC80 (0.4 nM), cAMP TR-FRET; read-out: Antagonism hEP4 IC50. Format: cell-based. The source says:
The binding of the agonist prostaglandin E2 (PGE2) to the EP4 subtype of human hPGE2-R (hEP4-R) induces the activation of membrane-bound adenylate cyclases and thus the formation of cAMP. In the presence of the phosphodiesterase inhibitor IBMX, this cAMP accumulates intracellularly and is employed in a competitive detection procedure after cell lysis. In this procedure, it competes with a fluorescence-labelled cAMP (cAMP-d2) for binding to an Eu cryptate-labelled anti-cAMP antibody. In the absence of cellular cAMP, a complex is formed between the Eu cryptate-labelled anti-cAMP antibody and the cAMP-d2 molecule, which after excitation at 337 nm makes possible an energy transfer based on FRET (fluorescence resonance energy transfer) to the cAMP-d2 tracer and leads to a long-lasting fluorescence signal (emission at 665 and 620 nm). This signal is time-resolved, i.e. measured in a suitable measuring apparatus after decay of the background fluorescence (time resolved; TR-FRET). The wave ratio determination (emission 665 nm/emission 620 nm*10000) moreover makes it possible to standardize individual measurement differences in the added amounts of the detection reagents.
By means of prostaglandin E2 administration and increase in the intracellular cAMP, a lowering of the FRET signal occurs, which in the case of an antagonistic substance action increases again.
A further 20 min at room temperature later, the cell lysate is measured according to the manufacturer's instructions in a TR-FRET-suitable measuring apparatus (compare cAMP HTRF assay kit: Cisbio International 62AM6PEJ high range)
Regarding `CCn1c2ccccc2c2cc(-c3nc4cc(C(=O)O)ccc4n3C[C@H](O)CO)ccc21` [Example 138, 1-[(2S)-2,3-Dihydroxypropyl]-2-(9-ethyl-9H-carbazol-3-yl)-1H-benzimidazole-5-carboxylic acid], the IC50 (in general, the concentration at which inhibition is half-maximal) came out at 567 nM. For the molecule `CCn1c2ccc(-c3nc4c(C)c(C(=O)O)ccc4n3CCOC)cc2c2cccc(Cl)c21` [Example 143, 2-(8-Chloro-9-ethyl-9H-carbazol-3-yl)-1-(2-methoxyethyl)-4-methyl-1H-benzimidazole-5-carboxylic acid], the IC50 came out at 5.19 nM. The result for `CCn1c2ccccc2c2cc(-c3nc4cc(C(=O)NS(=O)(=O)CCc5ccccc5C)ccc4n3CCOC)ccc21` [Example 57, 2-(9-Ethyl-9H-carbazol-3-yl)-1-(2-methoxyethyl)-N-{[2-(2-methylphenyl)ethyl]sulphonyl}-1H-benzimidazole-5-carboxamide] reads 239 nM; that for `CCn1c2ccc(-c3nc4cc(C(=O)O)ccc4n3CC3CC3)cc2c2cccnc21` [Example 116, 1-(Cyclopropylmethyl)-2-(9-ethyl-9H-pyrido[2,3-b]indol-6-yl)-1H-benzimidazole-5-carboxylic acid], 22.2 nM. The result for `C=CCn1c(-c2ccc3c(c2)c2ccccc2n3CC)nc2cc(C(=O)N(C)C)ccc21` [Example 85, 1-Allyl-2-(9-ethyl-9H-carbazol-3-yl)-N,N-dimethyl-1H-benzimidazole-5-carboxamide] reads 1860 nM. The result for `CCn1c2ccccc2c2cc(-c3nc4cc(C(=O)NC)ccc4n3CC3CC3)ccc21` [Example 24, 1-(Cyclopropylmethyl)-2-(9-ethyl-9H-carbazol-3-yl)-N-methyl-1H-benzimidazole-5-carboxamide] reads 338 nM; that for `CCn1c2ccccc2c2cc(-c3nc4cc(C(=O)N5CCCC5)ccc4n3CCOC)ccc21` [Example 76, [2-(9-Ethyl-9H-carbazol-3-yl)-1-(2-methoxyethyl)-1H-benzimidazol-5-yl](pyrrolidin-1-yl)-methanone], 41.3 nM; that for `CCn1c2ccccc2c2cc(-c3nc4cc(C(=O)NS(=O)(=O)c5ccccc5OC(F)(F)F)ccc4n3CCOC)ccc21` [Example 54, 2-(9-Ethyl-9H-carbazol-3-yl)-1-(2-methoxyethyl)-N-{[2-(trifluoromethoxy)phenyl]-sulphonyl}-1H-benzimidazole-5-carboxamide], 17.6 nM.

On to `CCn1c2ccccc2c2nc(-c3nc4cc(C(=O)O)ccc4n3CCOC)ccc21` [Example 42, 2-(5-Ethyl-5H-pyrido[3,2-b]indol-2-yl)-1-(2-methoxyethyl)-1H-benzimidazole-5-carboxylic acid], for which the IC50 worked out at 239 nM.

For `CCn1c2ccccc2c2cc(-c3nc4cc(C(=O)O)ccc4n3C)ccc21` [Example 94, 2-(9-Ethyl-9H-carbazol-3-y1)-1-methyl-1 H-benzimidazole-5-carboxylic acid], the IC50 turned out to be 195 nM. Next, `CCn1c2ccccc2c2cc(-c3nc4cc(C(=O)O)c(F)cc4n3CCOC)ccc21` [Example 113, 2-(9-Ethyl-9H-carbazol-3-yl)-6-fluoro-1-(2-methoxyethyl)-1H-benzimidazole-5-carboxylic acid]: 59.5 nM; `CCn1c2ccccc2c2cc(-c3nc4cc(-c5noc(=O)[nH]5)ccc4n3CCOC)ccc21` [Example 46, 3-[2-(9-Ethyl-9H-carbazol-3-yl)-1-(2-methoxyethyl)-1H-benzimidazol-5-yl]-1,2,4-oxadiazol-5(4H)-one]: 12.4 nM; `CCn1c2ccccc2c2cc(-c3nc4cc(-c5n[nH]c(=O)o5)ccc4n3CCN(C)C)ccc21` [Example 126, 5-{1-[2-(Dimethylamino)ethyl]-2-(9-ethyl-9H-carbazol-3-yl)-1H-benzimidazol-5-yl}-1,3,4-oxadiazol-2(3H)-one]: 118 nM.

Take `CCn1c2ccccc2c2cc(-c3nc4cc(C(=O)O)ccc4n3CC3CC3)nc(C)c21` [Example 131, 1-(Cyclopropylmethyl)-2-(9-ethyl-1-methyl-9H-beta-carbolin-3-yl)-1H-benzimidazole-5-carboxylic acid]: the IC50 worked out at 480 nM. On to `COCCn1c(-c2ccc3c(c2)c2ccccc2n3CC2CCC2)nc2cc(C(=O)O)ccc21` [Example 124, 2-[9-(Cyclobutylmethyl)-9H-carbazol-3-yl]-1-(2-methoxyethyl)-1H-benzimidazole-5-carboxylic acid], for which the IC50 was 94.3 nM. Next, `CCn1c2ccccc2c2cc(-c3nc4cc(C(=O)NS(=O)(=O)Cc5c(Cl)cccc5Cl)ccc4n3CCOC)ccc21` [Example 60, N-[(2,6-Dichlorbenzyl)sulphonyl]-2-(9-ethyl-9H-carbazol-3-yl)-1-(2-methoxyethyl)-1H-benzimidazole-5-carboxamide]: 19.8 nM; `CCn1c2ccccc2c2cc(-c3nc4cc(C(=O)NCCN5CCOCC5)ccc4n3CCOC)ccc21` [Example 78, 2-(9-Ethyl-9H-carbazol-3-yl)-1-(2-methoxyethyl)-N-[2-(morpholin-4-yl)ethyl]-1H-benzimidazole-5-carboxamide]: 74.3 nM. In the case of `CCn1c2ccccc2c2cc(-c3nc4cc(C(=O)O)ccc4n3CC3CCO3)ccc21` (stereo not shown) [Example 132, 2-(9-Ethyl-9H-carbazol-3-yl)-1-(oxetan-2-ylmethyl)-1H-benzimidazole-5-carboxylic acid], the IC50 worked out at 24.5 nM. On to `CCOC(=O)c1ccc2c(c1)nc(-c1ccc3c(c1)c1ccccc1n3CC)n2CCN(C)C` [Example 71, Ethyl-1-[2-(dimethylamino)ethyl]-2-(9-ethyl-9H-carbazol-3-yl)-1H-benzimidazole-5-carboxylate], for which the IC50 was determined as 872 nM. The result for `CCn1c2ccccc2c2cc(-c3nc4cc(C(=O)NS(=O)(=O)c5cccc(C)c5)ccc4n3CCOC)ccc21` [Example 47, 2-(9-Ethyl-9H-carbazol-3-yl)-1-(2-methoxyethyl)-N-[(3-methylphenyl)sulphonyl]-1H-benzimidazole-5-carboxamide] reads 25.6 nM; that for `CCn1c2ccccc2c2cc(-c3nc4cc(C(=O)NS(=O)(=O)c5ccccc5C)ccc4n3CCOC)ccc21` [Example 53, 2-(9-Ethyl-9H-carbazol-3-yl)-1-(2-methoxyethyl)-N-[(2-methylphenyl)sulphonyl]-1H-benzimidazole-5-carboxamide], 35.3 nM. As for `CCn1c2ccccc2c2cc(-c3nc4cc(C(=O)N5CCOCC5)ccc4n3CC3CC3)ccc21` [Example 29, [1-(Cyclopropylmethyl)-2-(9-ethyl-9H-carbazol-3-yl)-1H-benzimidazol-5-yl](morpholin-4-yl)methanone], the IC50 turned out to be 219 nM. As to `CCn1c2ccccc2c2cc(-c3nc4cc(C(=O)O)c(C)cc4n3CC3CC3)ccc21` [Example 110, 1-(Cyclopropylmethyl)-2-(9-ethyl-9H-carbazol-3-yl)-6-methyl-1H-benzimidazole-5-carboxylic acid], the IC50 was 1180 nM. As to `CCn1c2ccccc2c2cc(-c3nc4cc(C(=O)O)ccc4n3C[C@@H]3COCCO3)ccc21` [Example 139, 1-[(2R)-1,4-Dioxan-2-ylmethyl]-2-(9-ethyl-9H-carbazol-3-yl)-1H-benzimidazole-5-carboxylic acid], the IC50 turned out to be 252 nM.

For `CCn1c2ccccc2c2cc(-c3nc4c(Cl)c(C(=O)OC)ccc4n3CC3CC3)ccc21` [Example 7, Methyl 4-chloro-1-(cyclopropylmethyl)-2-(9-ethyl-9H-carbazol-3-yl)-1H-benzimidazole-5-carboxylate], the IC50 worked out at 1430 nM. Next, `CCn1c2ccccc2c2cc(-c3nc4cc(C(=O)N5CCOCC5)ccc4n3CCOC)ccc21` [Example 81, [2-(9-Ethyl-9H-carbazol-3-yl)-1-(2-methoxyethyl)-1H-benzimidazol-5-yl](morpholin-4-yl)-methanone]: 123 nM; `CCOC(=O)c1ccc2c(c1)nc(-c1ccc3c(c1)c1ccccc1n3CC)n2CC1COC1` [Example 122, Ethyl 2-(9-ethyl-9H-carbazol-3-yl)-1-(oxetan-3-ylmethyl)-1H-benzimidazole-5-carboxylate]: 464 nM. Next, `CCn1c2ccccc2c2cc(-c3nc4cc(C(=O)N(C)C)ccc4n3CCOC)ccc21` [Example 83, 2-(9-Ethyl-9H-carbazol-3-yl)-1-(2-methoxyethyl)-N,N-dimethyl-1H-benzimidazole-5-carboxamide]: 122 nM. For the molecule `O=C(O)c1ccc2c(c1)nc(-c1ccc3c(c1)c1ccccc1n3CC1CC1)n2CC1CC1` [Example 35, 1-(Cyclopropylmethyl)-2-[9-(cyclopropylmethyl)-9H-carbazol-3-yl]-1H-benzimidazole-5-carboxylic acid], the IC50 is 33.8 nM.

Take `CCn1c2ccc(-c3nc4cc(C(=O)O)ccc4n3CCOC)cc2c2c(F)cccc21` [Example 11, 2-(9-Ethyl-5-fluoro-9H-carbazol-3-yl)-1-(2-methoxyethyl)-1H-benzimidazole-5-carboxylic acid]: the IC50 stood at 6.36 nM. Next, `CCn1c2ccccc2c2cc(-c3nc4cc(C(=O)NS(=O)(=O)CCc5ccc(C(F)(F)F)cc5)ccc4n3CCOC)ccc21` [Example 20, 2-(9-Ethyl-9H-carbazol-3-yl)-1-(2-methoxyethyl)-N-({2-[4-(trifluoromethyl)phenyl]ethyl}-sulphonyl)-1H-benzimidazole-5-carboxamide]: 683 nM.

Source of the values: patent US9708311B2, “Benzimidazole derivatives as EP4 antagonists” (BAYER PHARMA AKTIENGESELLSCHAFT, priority 2012, dated 2017).
